The data set in a line: Thermo Scientific Acclaim RSLC 120 C18, 100 × 2.1 mm, 2.2 µm, 30 °C; A: 90% water + 10% methanol + 0.01% formic acid + 5 mM ammonium formate; B: methanol + 0.01% formic acid + 5 mM ammonium formate; gradient (min/%B) 0.1/1 3/39 14/99.9 16/99.9. The following applies: stereoisomer not certain.
On to `CN1C(=O)CC(C)(c2ccccc2)C1=O` (centres undefined), for which the LC retention time turned out to be 6.71 min.
On to `CC(C)(C)C(O)C(Oc1ccc(-c2ccccc2)cc1)n1cncn1` (centres undefined), for which the LC retention time amounted to 11.3 min.
Regarding `CNCCC=C1c2ccccc2COc2ccccc21`, the LC retention time worked out at 7.03 min.
For `CCOC(=O)C1(c2ccccc2)CCN(C)CC1`, the LC retention time worked out at 5.28 min.
On to `CCCCCc1cc(O)c2c(c1)OC(C)(C)C1CCC(CO)=CC21` (centres undefined), for which the LC retention time was 12.5 min.
Regarding `O=C(NC1CCN(CCc2c[nH]c3ccccc23)CC1)c1ccccc1`, the LC retention time was 5.37 min.
As to `CC(O)CCn1cc(C(=O)c2cccc3ccccc23)c2ccccc21` (centres undefined), the LC retention time was 9.91 min.
To `CC(Cc1ccc(C(C)(C)C)cc1)CN1CCCCC1` (centres undefined) belongs 8.62 min; to `COP(=S)(OC)Oc1ccc([N+](=O)[O-])c(C)c1`, 9.92 min.
Turning to `CN1CCCC(CC2c3ccccc3Sc3ccccc32)C1` (centres undefined), the LC retention time turned out to be 8.51 min.
In the case of `CCC1(c2cccc(O)c2)CCCCN(C)C1` (centres undefined), the LC retention time was found to be 4.74 min.
Consider `CC(C)NCC(O)COc1cccc2[nH]c3ccccc3c12` (centres undefined), for which the LC retention time stood at 5.49 min.
For `O=C(O)CCCCC1SCC2NC(=O)NC21` (centres undefined), the LC retention time came to 4.44 min.
For `CC(C)Nc1nc(NC(C)C)[nH]c(=O)n1`, the LC retention time worked out at 5.96 min.
Take `CC(C(=O)c1ccc2c(c1)OCO2)N1CCCC1` (centres undefined): the LC retention time turned out to be 4.13 min.
Regarding `CC12C=CC(=O)C=C1CCC1C2C(=O)CC2(C)C1CCC2(O)C(=O)CO` (centres undefined), the LC retention time worked out at 7.85 min.
In the case of `Cc1ccc(C(CCN(C)C)c2ccccc2)cc1` (centres undefined), the LC retention time worked out at 7.47 min.
Take `COc1cccc(C(=O)CCNC(C)C(O)c2ccccc2)c1` (centres undefined): the LC retention time was determined as 6.14 min.
For the compound `CCCCCn1nc(C(=O)NC23CC4CC(CC(C4)C2)C3)c2ccccc21`, the LC retention time came out at 14 min.
As to `CN(C)CCc1ccc(O)cc1`, the LC retention time came out at 2.28 min.
With `O=C1NC(=O)C2CC=CCC12` (centres undefined), the LC retention time was 4.37 min.
With `COc1ccc2c3c([nH]c2c1)C(C)=NCC3`, the LC retention time amounted to 5.06 min.
The result for `Cc1nn(C)c(Oc2ccccc2)c1C=NOCc1ccc(C(=O)OC(C)(C)C)cc1` reads 13.2 min.
On to `CCN(CC)CCOC(=O)C(O)(c1ccccc1)c1ccccc1`, for which the LC retention time was determined as 6.08 min.
To `CNCCC=C1c2ccccc2CCc2ccccc21` belongs 8.51 min.
With `CC(=O)c1ccc2c(c1)N(CCCN(C)C)c1ccccc1S2`, the LC retention time was found to be 7.47 min.
Consider `CSc1nc(NC2CC2)nc(NC(C)(C)C)n1`, for which the LC retention time worked out at 10.5 min.
On to `CNC(C)Cc1ccc2c(c1)OCO2` (centres undefined), for which the LC retention time came out at 4.18 min.
To `CCC1OC(=O)C(C)C(OC2CC(C)(OC)C(O)C(C)O2)C(C)C(OC2OC(C)CC(N(C)C)C2O)C(C)(O)CC(C)C(=NOCOCCOC)C(C)C(O)C1(C)O` (centres undefined) belongs 9.23 min; to `CNC(=C[N+](=O)[O-])NCCSCc1ccc(C[N+](C)(C)[O-])o1`, 3.43 min; to `CC12CCC(=O)C=C1C=CC1C2CCC2(C)C1CCC21CCC(=O)O1` (centres undefined), 9.77 min.
As for `CCOC(=O)C1CC(=O)C(=C(O)C2CC2)C(=O)C1` (centres undefined), the LC retention time was found to be 8.45 min.
In the case of `COP(N)(=O)SC` (centres undefined), the LC retention time was determined as 2.76 min.
As for `O=C(OC1CC2CCC(C1)[N+]21CCCC1)C(O)(c1ccccc1)c1ccccc1` (centres undefined), the LC retention time turned out to be 5.72 min.
In the case of `CC=C1CC(C)C(C)(O)C(=O)OCC2=CC[N+]3([O-])CCC(OC1=O)C23` (centres undefined), the LC retention time was 5.07 min.
With `CCOP(=S)(OCC)OP(=S)(OCC)OCC`, the LC retention time is 10.8 min.
On to `NC(=O)C(CCN1CCCCC1)(c1ccccc1)c1ccccc1`, for which the LC retention time came to 5.19 min.
As for `CCCSP(=S)(OCC)Oc1ccc(SC)cc1` (centres undefined), the LC retention time came to 12.8 min.
In the case of `CNC(=O)N(C)c1nnc(C(C)(C)C)s1`, the LC retention time turned out to be 7.25 min.
Consider `CC(=O)OCC(=O)C12N=C(C)OC1CC1C3CCC4=CC(=O)C=CC4(C)C3C(O)CC12C` (centres undefined), for which the LC retention time stood at 9.35 min.
The result for `CCNc1nc(NCC)nc(SC)n1` reads 8.14 min; that for `COP(=O)(NC(C)=O)SC` (centres undefined), 3.11 min; that for `Cn1c(=O)c2c(ncn2CCCNCC(O)c2cc(O)cc(O)c2)n(C)c1=O` (centres undefined), 3.56 min.
In the case of `CSc1ccc(CC(C)N)cc1` (centres undefined), the LC retention time is 5.24 min.
Consider `CC(=O)Nc1ccc(S(=O)(=O)Nc2cc(C)on2)cc1`, for which the LC retention time is 5.28 min.
As to `CCNP(=S)(OC)OC(C)=CC(=O)OC(C)C` (centres undefined), the LC retention time stood at 9.79 min.
In the case of `CCNc1nc(NC(C)(C)C)nc(OC)n1`, the LC retention time was found to be 9.16 min.
Consider `CN(C)NC(=O)CCC(=O)O`, for which the LC retention time amounted to 6.28 min.
For the compound `CCCCCCCCCc1ccc(OCCOCCO)cc1`, the LC retention time was determined as 13.8 min.
Take `c1ccc(Nc2ccccc2)cc1`: the LC retention time was found to be 10.1 min.
Regarding `CCN(CC)C(C)C(=O)c1ccccc1` (centres undefined), the LC retention time was 4.11 min.
For the compound `CCCCCn1cc(C(=O)N2CCN(C)CC2)c2ccccc21`, the LC retention time was found to be 7.75 min.
Take `CC12CCC(=O)C=C1CCC1C2CCC2(C)C(C(=O)CO)CCC12` (centres undefined): the LC retention time was 13.7 min.
For the compound `CCOC(=O)Nc1cccc(OC(=O)Nc2ccccc2)c1`, the LC retention time worked out at 8.57 min.
Consider `CCC(CC)Nc1c([N+](=O)[O-])cc(C)c(C)c1[N+](=O)[O-]`, for which the LC retention time worked out at 12.8 min.
In the case of `COC(=O)C(c1ccccc1)C1CCCCN1` (centres undefined), the LC retention time turned out to be 4.96 min.
For `CCCCCn1cc(C(=O)c2ccc(CC)c3ccccc23)c2ccccc21`, the LC retention time was 13.2 min.
Turning to `CCC(CN(C)C)(CN(C)C)OC(=O)c1ccccc1`, the LC retention time was 6.07 min.
As for `CC1=C(C(=O)O)N2C(=O)C(NC(=O)C(N)c3ccccc3)C2SC1` (centres undefined), the LC retention time is 4.08 min.
For `NCC1CCC(C(=O)O)CC1` (centres undefined), the LC retention time stood at 1.79 min.
To `COc1ccc(C2Sc3ccccc3N(CCN(C)C)C(=O)C2O)cc1` (centres undefined) belongs 6.41 min.
With `CNC1C(OC2C(OC3C(O)C(O)C(N=C(N)N)C(O)C3N=C(N)N)OC(C)C2(O)CO)OC(CO)C(O)C1O` (centres undefined), the LC retention time worked out at 1.26 min.
Consider `CCN(CC)C(=O)c1cccnc1`, for which the LC retention time worked out at 4.64 min.
To `CCc1cc2c(cc1CC)CC(NCC(O)c1ccc(O)c3[nH]c(=O)ccc13)C2` (centres undefined) belongs 7.9 min; to `COC(=O)C1=C(C)NC(C)=C(C(=O)OC)C1c1ccccc1[N+](=O)[O-]`, 8.31 min; to `CCCCCc1cc(O)c2c(c1)OC(C)(C)C1CCC(C)=CC21` (centres undefined), 14 min.
For `COc1ccc2c3c1OC1C(=O)CCC4(O)C(C2)N(C)CCC314` (centres undefined), the LC retention time is 3.61 min.
Take `Cc1ccc(C(=CCN2CCCC2)c2ccccn2)cc1`: the LC retention time came out at 6.28 min.
Take `N=C(N)N1CCc2ccccc2C1`: the LC retention time is 4.39 min.
`CNC(=O)Oc1ccc(N(C)C)c(C)c1`: the LC retention time was 5.15 min.
Take `CCCc1nc(C)c2c(=O)[nH]c(-c3cc(S(=O)(=O)N4CCN(CC)CC4)ccc3OCC)nn12`: the LC retention time worked out at 8.11 min.
As for `CC(C)(N)Cc1ccccc1`, the LC retention time stood at 4.64 min.
With `c1ccc(CN(CC2=NCCN2)c2ccccc2)cc1`, the LC retention time is 6.41 min.
In the case of `CC12CCC3c4ccc(O)c(O)c4CCC3C1CCC2=O` (centres undefined), the LC retention time was determined as 8.69 min.
For `CC(C(=O)O)c1cccc(C(=O)c2ccccc2)c1` (centres undefined), the LC retention time is 8.53 min.
Consider `CC1(OC(=O)C=Cc2ccccc2)CC(O)C2(O)C=COC(OC3OC(CO)C(O)C(O)C3O)C12` (centres undefined), for which the LC retention time turned out to be 8.25 min.
Regarding `CCCCCn1c2ccccc2c2cc(C(=O)c3cccc4ccccc34)ccc21`, the LC retention time worked out at 14.2 min.
Consider `O=C(O)c1ccccc1C(=O)Nc1ccc(S(=O)(=O)Nc2nccs2)cc1`, for which the LC retention time came to 4.66 min.
For the compound `CCN(CC)CC(=O)Nc1c(C)cccc1C`, the LC retention time amounted to 4.54 min.
For the compound `CCN(CC)CC(C)(C)COC(=O)c1ccc(N)cc1`, the LC retention time was 4.24 min.
Turning to `CCN(CC)CCCOC(=O)C1(c2ccccc2)CC2CCC1C2` (centres undefined), the LC retention time turned out to be 8.54 min.
On to `Cc1cc2c(s1)Nc1ccccc1N=C2N1CCN(C)CC1`, for which the LC retention time came out at 4.99 min.
For `CN1CCC23c4c5ccc(O)c4OC2C(=O)CCC3C1C5` (centres undefined), the LC retention time worked out at 2.91 min.
To `COP(=S)(OC)SCn1nnc2ccccc2c1=O` belongs 8.89 min; to `NC(=O)c1ccccc1O`, 4.76 min.
On to `COP(N)(=S)Oc1ccccc1C(=O)OC(C)C` (centres undefined), for which the LC retention time was determined as 8.32 min.
The result for `CCCCCn1nc(C(=O)Nc2cccc3ccccc23)c2ccccc21` reads 13 min.
Regarding `CN(C)CCN1C(=O)c2ccccc2N(C)c2ccccc21`, the LC retention time was 5.49 min.
For the compound `CC(C)NCC(O)COc1ccc(COCCOC(C)C)cc1` (centres undefined), the LC retention time amounted to 5.91 min.
In the case of `O=c1[nH]c2ccccc2n1CCCN1CCN(C(c2ccccc2)c2ccccc2)CC1`, the LC retention time came to 8.42 min.
Turning to `CC(C)(C)NCC(O)COc1cccc2c1SCCC2` (centres undefined), the LC retention time was determined as 6.76 min.
Regarding `COC(=O)C(NC(=O)c1nn(CC2CCCCC2)c2ccccc12)C(C)C` (centres undefined), the LC retention time was 12.4 min.
Consider `S=c1nc[nH]c2nc[nH]c12`, for which the LC retention time stood at 2.61 min.
On to `CCOP(=O)(NC(C)C)Oc1ccc(SC)c(C)c1` (centres undefined), for which the LC retention time amounted to 10.4 min.
`CCOP(=S)(NC(C)C)Oc1ccccc1C(=O)OC(C)C` (centres undefined): the LC retention time came to 11.2 min.
To `CCOC1Oc2ccc(OS(C)(=O)=O)cc2C1(C)C` (centres undefined) belongs 9.14 min; to `Cc1ccccc1C(=O)Nc1cccc(OC(C)C)c1`, 9.62 min.
Consider `Nc1ccc(S(N)(=O)=O)cc1`, for which the LC retention time is 2.23 min.
Take `CC(C)c1ccc(NC(=O)N(C)C)cc1`: the LC retention time was found to be 8.32 min.

The values are drawn from the RepoRT retention time repository (doi:10.1016/j.jhazmat.2019.121712).
